Experimental data published in patent US10738093B2, “Discovery of cationic nonribosomal peptides as Gram-negative antibiotics through global genome mining” (The Hong Kong University of Science and Technology, priority 2018, dated 2020).
In brackets after ≈: the same amount, converted by molar mass. Read-outs that look alike come from different tables or passages of the source. Positions of bridges follow the written chain, without caps; N, C: chain ends. Non-standard residues stand in square brackets, D forms with d. Residues, ends and D or L forms follow the SMILES beside them. *: point of attachment. Octanoyl(7-Me) = CC(C)CCCCCC(=O)*; dOrn = NCCC[C@@H](N)C(=O)O; Orn = NCCC[C@H](N)C(=O)O

Assays:
[1] = system: Escherichia coli ATCC 25922; assay: microbe, parasite or virus in culture; assay type: cell-based
Protocol: (§1) Minimum inhibitory concentration (MIC) was determined by broth microdilution according to CLSI guidelines. The test medium for most species was Mueller-Hinton broth (MHB). Bacteria were grown overnight to early stationary phase and adjusted in MHB to 5.0×10^5 colony-forming units per mL (c.f.u./mL) in the wells of 96-well microtiter plates, mixed with varying concentrations of test compounds and incubated at 37° C. for 24 h. […] MHBs containing 10% fetal bovine serum (Gibco), 21 mM MgCl, or 1.0 mg/ml LPS (lipopolysaccharides from Escherichia coli O55:B5, Sigma-Aldrich) were used to test their inhibitory effects.

[2] = system: Bacillus subtilis 168; assay type: cell-based; conditions: for MIC Bs: Table 2, B. subtilis 168
Protocol: as §1

[3] = system: Methicillin-resistant Staphylococcus aureus ATCC 43300; assay type: cell-based; conditions: for MIC MRSA: Table 2, Methicillin-resistant Staphylococcus aureus ATCC 43300
Protocol: as §1

[4] = system: Pseudomonas aeruginosa PAO1; assay type: cell-based
Protocol: as §1

[5] = system: Colistin-resistant E. coli (E. coli ATCC 25922 carrying mcr-1); assay type: cell-based, Escherichia coli
Protocol: as §1

[6] = system: E. coli Top10; assay type: cell-based, Escherichia coli; conditions: E. coli Top10
Protocol: as §1

[7] = system: Acinetobacter baumannii; assay type: cell-based; conditions: Acinetobacter baumannii; for MIC Ab: Table 2
Protocol: as §1

[8] = system: Candida albicans; assay type: cell-based; conditions: Candida albicans; for MIC Ca: Table 2
Protocol: as §1

[9] = system: Enterobacter cloacae NRRL-B-413; assay type: cell-based; conditions: Enterobacter cloacae NRRL-B-413; for MIC En: Table 2
Protocol: as §1

[10] = system: Klebsiella pneumoniae NRRL-B-408; assay type: cell-based; conditions: Klebsiella pneumoniae NRRL-B-408
Protocol: as §1

[11] = system: K. pneumoniae NRRL-B-3521; assay type: cell-based, Klebsiella pneumoniae; conditions: K. pneumoniae NRRL-B-3521
Protocol: as §1

[12] = system: E. cloacae NRRL-B-425; assay type: cell-based, Enterobacter cloacae; conditions: E. cloacae NRRL-B-425
Protocol: as §1

[13] = system: Saccharomyces cerevisiae VL-48; assay: MIC, Saccharomyces cerevisiae; assay type: cell-based; conditions: for MIC Sc: Table 2, Saccharomyces cerevisiae VL-48
Protocol: as §1

[14] = system: E. coli Top10; assay: Time-kill assay; assay type: cell-based, Escherichia coli; conditions: 10 times the MIC
Protocol: An overnight culture of E. coli Top10 or Pseudomonas aeruginosa PAO1 cells was diluted 1:10,000 in MHB and incubated at 37° C. with agitation at 180 rpm for 2 h (early exponential). The bacteria were then challenged with antibiotics at 10×MIC, brevicidine (20 μg/ml), laterocidine (20 μg/ml) or polymyxin B (10 μg/ml) at room temperature without shaking. An untreated sample of cells was used as a negative control. At intervals, 10 μL aliquots were removed, centrifuged at 10,000 g for 1 min and resuspended in 1.0 mL of sterile PBS. Tenfold-serially-diluted suspensions were plated on MHB agar plates and incubated at 37° C. overnight. Colonies were counted and the number of c.fu. per mL was calculated. For analysis of lysis, 300 μL of culture (OD600=1.0) were treated with 10×MIC of antibiotics for 24 h. Experiments were performed in triplicate.

[15] = LPS binding by isothermal titration calorimetry; set-up: species or system Escherichia coli; conditions: ITC, FIGS. 18a-18b
Protocol: Microcalorimetric experiments of peptide binding to LPS were performed on an MCS isothermal titration calorimeter (ITC) (Microcal, Northampton, Mass.) at 37° C. LPS was prepared as a 50 μM aqueous suspension in 20 mM HEPES (pH 7.0) buffer by suspension, sonication and temperature cycling between 5° C. and 70° C. This suspension was stored at 4° C. overnight prior to use. 100 μM peptide solutions (brevicidine and polymyxin B) were prepared in the same buffer and all solutions were degassed prior to use by stirring under vacuum for 5 min at 37° C. After thermal equilibration, 5 μL aliquots of the peptide solution were added every 3 min into the lipid-containing cell at 37° C. and stirred constantly. The change in heat during the titration steps was registered in real time and raw data were processed using the Origin® 7 software provided with the instrument. In control experiments, the corresponding peptide solution (or LPS solution) was injected into the buffer without LPS (or without peptide).

[16] = system: Escherichia coli ATCC 25922; assay: Resistance acquisition during serial passaging; assay type: cell-based; conditions: serial passaging at subinhibitory concentrations over 30 days
Protocol: Escherichia coli ATCC 25922 was inoculated into MHB overnight at 37° C. with continuous shaking. Cells were diluted 10,000 times in MHB to about 1×10^6 c.f.u./mL. […] Plates with bacteria were incubated at 37° C. without shaking. […] This process was repeated for 30 d, and the final MIC was confirmed by the same antibacterial assay described above. The experiment was performed in quadruplicate, and on each day, the sample that developed the highest resistance was measured to plot the curve.

[17] = Table 2, Escherichia coli ATCC 25922
[18] = Table 2, Pseudomonas aeruginosa PAO1
[19] = E. coli ATCC 25922 + LPS (1.0 mg L^−1)
[20] = E. coli ATCC 25922 + Mg^2+ (21 mM)

C[C@H]1COc2c(N3CCN(C)CC3)c(F)cc3c(=O)c(C(=O)O)cn1c23 [Levofloxacin, reference compound]
MIC ([1]; Escherichia coli, ATCC25922, positive control of the mouse thigh study, read-out: MIC): 0.032 µg/mL (≈ 0.0886 µM)

CC[C@H](C)[C@@H]1NC(=O)[C@@H](NC(=O)[C@@H](N)Cc2c[nH]c3ccccc23)[C@@H](C)OC(=O)CNC(=O)CNC(=O)[C@H](CC(N)=O)NC1=O [Compound 8] (H-WTINGG; ester 2-C)
MIC Ec [1, 17]: ND (ND >64 μg/ml) | MIC Bs [2]: ND (ND >64 μg/ml) | MIC MRSA [3]: ND (ND >64 μg/ml) | MIC Pa [4, 18]: ND (ND >64 μg/ml)

CC(C)CCCCCC(=O)N[C@H](CO)C(=O)N[C@H](Cc1ccc(O)cc1)C(=O)N[C@H](Cc1c[nH]c2ccccc12)C(=O)N[C@H](CCCN)C(=O)N[C@@H](CCCN)C(=O)NCC(=O)N[C@H](CCCN)C(=O)O [Compound 9] ({Octanoyl(7-Me)}-[dS][dY][dW][dOrn][Orn]G[dOrn]-OH)
MIC Ec [1, 17]: ND (ND >64 μg/ml) | MIC Bs [2]: ND (ND >64 μg/ml) | MIC MRSA [3]: ND (ND >64 μg/ml) | MIC Pa [4, 18]: ND (ND >64 μg/ml)

polymyxin B [reference compound]
MIC ([1]; E. coli ATCC 25922 + 10% serum): 1 to 2 µg/mL | MIC [1, 19]: >64 µg/mL | MIC [1, 20]: >64 µg/mL | MIC ([1]; Escherichia coli ATCC 25922): 1 µg/mL | MIC Ec [1, 17]: 1 µg/mL | MIC [5]: 16 µg/mL | MIC [6]: 2 µg/mL | MIC [7]: 4 µg/mL | MIC Ab [7]: 4 µg/mL | MIC ([2]; Bacillus subtilis 168): 4 µg/mL | MIC Bs [2]: 4 µg/mL | MIC [8]: >64 µg/mL | MIC Ca [8]: ND (ND >64 μg/ml) | MIC [9]: 8 µg/mL | MIC En [9]: 8 µg/mL | MIC [10]: 16 µg/mL | MIC ([3]; Staphylococcus aureus (MRSA)): 32 µg/mL | MIC MRSA [3]: 32 µg/mL | MIC ([4]; Pseudomonas aeruginosa PAO1): 1 µg/mL | MIC Pa [4, 18]: 1 µg/mL | MIC [11]: 2 µg/mL | MIC [12]: 64 µg/mL | MIC ([13]; Saccharomyces cerevisiae): >64 µg/mL | MIC Sc [13]: ND (ND >64 μg/ml) | time of exposure to significant reduction of viable cells [14]: 5 min | time to killing all cells [14]: ≤ 30 min | binding to LPS [15]: strong binding to LPS

colistin [reference compound]
MIC ([1]; E. coli ATCC 25922 + 10% serum): 2 to 4 µg/mL | MIC [1, 19]: >64 µg/mL | MIC [1, 20]: >64 µg/mL | MIC ([1]; Escherichia coli ATCC 25922): 2 µg/mL | MIC [5]: 16 µg/mL | MIC [6]: 2 µg/mL | MIC ([4]; Pseudomonas aeruginosa PAO1): 1 µg/mL

CC[C@H](C)[C@@H]1NC(=O)[C@@H](NC(=O)[C@@H](N)Cc2c[nH]c3ccccc23)[C@@H](C)OC(=O)[C@@H](CO)NC(=O)CNC1=O [Compound 4] (H-WTIG[dS]; ester 2-C)
MIC Ec [1, 17]: ND (ND >64 μg/ml) | MIC Ab [7]: ND (ND >64 μg/ml) | MIC Bs [2]: ND (ND >64 μg/ml) | MIC Ca [8]: ND (ND >64 μg/ml) | MIC En [9]: ND (ND >64 μg/ml) | MIC MRSA [3]: ND (ND >64 μg/ml) | MIC Pa [4, 18]: ND (ND >64 μg/ml) | MIC Sc [13]: ND (ND >64 μg/ml)

CC(C)CCCCCC(=O)N[C@H](CO)C(=O)N[C@H](Cc1ccc(O)cc1)C(=O)N[C@H](Cc1c[nH]c2ccccc12)C(=O)N[C@H](CCCN)C(=O)O [Compound 10] ({Octanoyl(7-Me)}-[dS][dY][dW][dOrn]-OH)
MIC Ec [1, 17]: ND (ND >64 μg/ml) | MIC Bs [2]: ND (ND >64 μg/ml) | MIC MRSA [3]: ND (ND >64 μg/ml) | MIC Pa [4, 18]: ND (ND >64 μg/ml)

NCCC[C@H](N)C(=O)NCC(=O)N[C@H](CCCN)C(=O)O [Compound 7] (H-[Orn]-Gly-[dOrn]-OH)
MIC Ec [1, 17]: ND (ND >64 μg/ml) | MIC Bs [2]: ND (ND >64 μg/ml) | MIC MRSA [3]: ND (ND >64 μg/ml) | MIC Pa [4, 18]: ND (ND >64 μg/ml)

O=C(O)c1cn(C2CC2)c2cc(N3CCNCC3)c(F)cc2c1=O [ciprofloxacin, reference compound]
development of resistance [16]: rapidly developed resistance

CC[C@H](C)[C@H](NC(=O)[C@@H](NC(=O)[C@H](Cc1c[nH]c2ccccc12)NC(=O)[C@@H](CCCN)NC(=O)CNC(=O)[C@@H](CCCN)NC(=O)[C@@H](CCCN)NC(=O)[C@@H](Cc1c[nH]c2ccccc12)NC(=O)[C@@H](Cc1ccc(O)cc1)NC(=O)[C@@H](CO)NC(=O)CCCCCC(C)C)[C@@H](C)O)C(=O)N[C@@H](CC(N)=O)C(=O)NCC(=O)NCC(=O)O [Compound 11] ({Octanoyl(7-Me)}-[dS][dY][dW][dOrn][dOrn]G[dOrn]WTINGG-OH)
MIC Ec ([1]; ATCC 25922): 16 µg/mL (≈ 9.86 µM) | MIC Bs [2]: ND (ND >64 μg/ml) | MIC MRSA [3]: ND (ND >64 μg/ml) | MIC Pa ([4]; PAO1): 8 µg/mL (≈ 4.93 µM)
